This is an account of results in patent US20240325531A1, “CAR T/NK-CELLS FOR USE IN THE TREATMENT OF INVASIVE FUNGAL INFECTIONS” (UNIVERSITAT DE BARCELONA, priority 2021, published 2024).

The subject of experiment [1] is acute panmyelosis with myelofibrosis. Nature of the experiment: Patient's earlier treatment of relapsed haematological disease. The experiment is classed as in vivo, human. The settings on record: venetoclax plus azacytidine, after the first two cycles, one patient.
In experiment [2] the test system is Fusarium petroliphilum. Briefly: Antifungal resistance tests (MIC) on the patient's mold. The experiment is classed as cell-based. The settings on record: Fusarium petroliphilum from the patient's skin biopsy; no clinical breakpoints established; read-out: minimum inhibitory concentrations (MIC). The procedure: The patient was admitted to the hospital for fever, muscle pain, and polytopic erythematous plaques/nodules on the trunk and extremities, some of them with central pustules. […] Blood cultures were negative. Galactomannan and β-D-glucan were negative. […] Bronchoscopy was performed but all results were negative.

Experiment [3] concerns Fusarium petroliphilum. Nature of the experiment: Treatment of a patient with fusariosis (compassionate, first-in-human use). The experiment is classed as in vivo. The conditions noted are these: one patient; liposomal amphotericin-B, terbinafine and voriconazole given together, before cell therapy.
Procedure: Since admission, liposomal amphotericin-B was initiated and after fusariosis diagnosis, terbinafine and voriconazole were added.

Structures are written as SMILES. A value given as a limit tells only on which side of the number the result lay.

In the case of `Nc1ncn([C@@H]2O[C@H](CO)[C@@H](O)[C@H]2O)c(=O)n1` [azacytidine], in experiment [1], the “response of haematological disease” value is given as “partial response”. With `C[C@@H](c1nc(-c2ccc(C#N)cc2)cs1)[C@](O)(Cn1cncn1)c1cc(F)ccc1F` [isavuconazole], the MIC in the experiment on Fusarium petroliphilum [2] was more than 8 µg/mL. Consider `CC[C@@H]([C@H](C)O)n1ncn(-c2ccc(N3CCN(c4ccc(OC[C@@H]5CO[C@@](Cn6cncn6)(c6ccc(F)cc6F)C5)cc4)CC3)cc2)c1=O` [posaconazole], for which the MIC in the experiment with Fusarium petroliphilum [2] is more than 8 µg/mL.

On to `CN(C/C=C/C#CC(C)(C)C)Cc1cccc2ccccc12` [terbinafine], for which, in the experiment with Fusarium petroliphilum [3], the “clinical course under antifungal drugs” value was “remained febrile, with appearance of new skin lesions and mild worsening of the chest CT images”. Consider `C[C@@H](c1ncncc1F)[C@](O)(Cn1cncn1)c1ccc(F)cc1F` [voriconazole], for which the “clinical course under antifungal drugs” value with Fusarium petroliphilum [3] was “remained febrile, with appearance of new skin lesions and mild worsening of the chest CT images”. In addition, the MIC with Fusarium petroliphilum [2] is more than 8 µg/mL.
